Laboratory results reported in the NIST ThermoML archive (doi:10.1016/j.jct.2011.06.019).

Tests used:
[1] = molar heat capacity at constant pressure; xn = mol fraction of the nth substance listed; settings: 313.15 K, Liquid, Flow calorimetry
[2] = molar heat capacity at constant pressure; settings: Liquid, Flow calorimetry

CCO [ethanol] + Cc1ccccc1
[1], x2 = 0
Settings | molar heat capacity at constant pressure [J/K/mol]
100 kPa | 119.2
5000 kPa | 118
10000 kPa | 116.8
15000 kPa | 115.5
20000 kPa | 114.9

CCO [ethanol] + CCCCCCC
[1], x2 = 0
Settings | molar heat capacity at constant pressure [J/K/mol]
100 kPa | 119.2
5000 kPa | 118
10000 kPa | 116.8
15000 kPa | 115.5
20000 kPa | 114.9

CCO [ethanol]
molar heat capacity at constant pressure [J/K/mol], [2]
Settings | 100 kPa | 5000 kPa | 10000 kPa | 15000 kPa | 20000 kPa
273.15 K | 103.5 | 103.1 | 102.1 | 101.7 | 100.7
293.15 K | 111.2 | 110.2 | 109 | 108.1 | 107.4
313.15 K | 119.2 | 118 | 116.8 | 115.5 | 114.9
333.15 K | 130 | 129.1 | 127.7 | 126 | 124.7

CCCCCCC [heptane]
molar heat capacity at constant pressure [J/K/mol], [2]
Settings | 100 kPa | 5000 kPa | 10000 kPa | 15000 kPa | 20000 kPa
273.15 K | 216.2 | 213.1 | 210.9 | 208.1 | 207.2
293.15 K | 224.1 | 223 | 218.2 | 216.8 | 214.4
313.15 K | 233.8 | 230.3 | 226.2 | 223.1 | 221.6
333.15 K | 241.9 | 238.7 | 235 | 232 | 229.3

CCCCCCC [heptane] + CCO
molar heat capacity at constant pressure [J/K/mol], [1]
Settings | x1 = 0.1 | x1 = 0.2001 | x1 = 0.3 | x1 = 0.4001 | x1 = 0.5001 | x1 = 0.6 | x1 = 0.6999 | x1 = 0.7999 | x1 = 0.9 | x1 = 1
100 kPa | 134.2 | 149.4 | 163.6 | 176.8 | 190.9 | 202.9 | 215.3 | 224.9 | 234.8 | 233.8
5000 kPa | 132.5 | 147.1 | 160.8 | 174.2 | 187.6 | 200 | 211.9 | 221.4 | 230.4 | 230.3
10000 kPa | 130.7 | 146.1 | 158.6 | 171.6 | 185 | 196.7 | 209 | 218.7 | 226.9 | 226.2
15000 kPa | 129.5 | 143.6 | 156.7 | 169.4 | 182.5 | 194.8 | 205.9 | 215.9 | 223.8 | 223.1
20000 kPa | 128.4 | 142.4 | 155.3 | 168.3 | 180.9 | 193.1 | 204 | 213.3 | 222.6 | 221.6

Cc1ccccc1 [toluene] + CCO
molar heat capacity at constant pressure [J/K/mol], [1]
Settings | x1 = 0.1003 | x1 = 0.2007 | x1 = 0.2999 | x1 = 0.4002 | x1 = 0.5 | x1 = 0.6001 | x1 = 0.7 | x1 = 0.8 | x1 = 0.9001 | x1 = 1
100 kPa | 130.1 | 138.3 | 146.1 | 153.2 | 159.1 | 163.7 | 167.7 | 169.5 | 168.5 | 163.5
5000 kPa | 128.7 | 136.6 | 144.2 | 151.3 | 157.1 | 162 | 165.3 | 167.5 | 167.3 | 161.3
10000 kPa | 127.3 | 135.5 | 143.2 | 150 | 155.7 | 160.2 | 164.1 | 166.3 | 165.9 | 159.9
15000 kPa | 126.1 | 134.4 | 141.9 | 148.5 | 154.3 | 158.6 | 162.6 | 164.9 | 165.2 | 158.9
20000 kPa | 125.1 | 133.6 | 140.9 | 147.5 | 153.4 | 158.1 | 161.8 | 164 | 163.6 | 157.8
